Assay results as given in ChEMBL document CHEMBL1782001, “Discovery of selective PDE4B inhibitors” (Bioorg Med Chem Lett, 2009).
pIC50: −log10 of the molar value.

Key:
Homo sapiens = species: Homo sapiens; experiment: Selectivity ratio, ratio of IC50 for human PDE4D3 to IC50 for human PDE4B1
[1] = biological target: 3',5'-cyclic-AMP phosphodiesterase 4D (Homo sapiens, UniProt Q08499); experiment: Inhibition of human PDE4D3 incubated for 10 mins using cAMP and [3H]cAMP substrates
[2] = biological target: 3',5'-cyclic-AMP phosphodiesterase 4B (Homo sapiens, UniProt Q07343); experiment: Inhibition of human PDE4B1 incubated for 10 mins using cAMP and [3H]cAMP substrates
Mustela putorius furo [3] = experiment: Inhibition of […] in ferret assessed as inhibition of LPS-induced change in number of neutrophils in lung lavage at 10 mg/kg, po; format: functional
Mus musculus = experiment: Inhibition of LPS-induced TNFalpha production in po dosed mouse; format: functional; conditions: read-out: ID50 (the source's name)
Mustela putorius furo [4] = experiment: Toxicity in ferret assessed as induction of emesis at 0.3 mg/kg, po measured 6 hrs post dose; format: organism-based; set-up: dose 0.3 mg/kg, route oral; conditions: in vivo
Mustela putorius furo [5] = experiment: Toxicity in ferret assessed as induction of emesis at 10 mg/kg, po measured 6 hrs post dose; format: organism-based; set-up: dose 10 mg/kg, route oral; conditions: in vivo
Mustela putorius furo [6] = experiment: Toxicity in ferret assessed as induction of emesis at 1 mg/kg, po measured 6 hrs post dose; format: organism-based; set-up: dose 1 mg/kg, route oral; conditions: in vivo
Cytochrome P450 3A4 = Cytochrome P450 3A4 (Homo sapiens, UniProt P08684); experiment: Inhibition of CYP3A4; format: ADME
[7] = AUC (0 to infinity) in ferret at 2 mg/kg, po; format: ADME, organism-based, Mustela putorius furo; set-up: time infinity, dose 2 mg/kg, route oral; conditions: plasma
[8] = Cmax in mouse at 2 mg/kg, po; format: ADME, organism-based; set-up: dose 2 mg/kg, route oral; conditions: in vivo
Mustela putorius furo [9] = experiment: Toxicity in ferret assessed as induction of emesis at 100 mg/kg, po measured 6 hrs post dose; format: organism-based; set-up: dose 100 mg/kg, route oral; conditions: in vivo
Cytochrome P450 2C9 = Cytochrome P450 2C9 (Homo sapiens, UniProt P11712); experiment: Inhibition of CYP2C9; format: ADME
Cytochrome P450 2D6 = Cytochrome P450 2D6 (Homo sapiens, UniProt P10635); experiment: Inhibition of CYP2D6; format: ADME
[10] = Cmax in ferret at 2 mg/kg, po; format: ADME, organism-based, Mustela putorius furo; set-up: dose 2 mg/kg, route oral; conditions: in vivo
[11] = AUC (0 to infinity) in mouse at 2 mg/kg, po; format: ADME, organism-based; set-up: time infinity, dose 2 mg/kg, route oral; conditions: plasma
Mustela putorius furo [12] = experiment: Toxicity in ferret assessed as induction of emesis at 200 mg/kg, po measured 6 hrs post dose; format: organism-based; set-up: dose 200 mg/kg, route oral; conditions: in vivo
[13] = Inhibition of PDE3
[14] = Oral bioavailability in mouse; format: ADME, organism-based; conditions: in vivo
[15] = Inhibition of PDE1
[16] = biological target: cGMP-specific 3',5'-cyclic phosphodiesterase (Homo sapiens, UniProt O76074); experiment: Inhibition of PDE5
Mustela putorius furo [17] = experiment: Inhibition of […] in ferret assessed as inhibition of LPS-induced change in number of neutrophils in lung lavage at 25 mg/kg, po; format: functional
Cytochrome P450 1A2 = biological target: T1, Cytochrome P450 1A2 (Homo sapiens, UniProt P05177); experiment: Inhibition of CYP1A2; format: ADME
T1 sequence (P05177 whole entry): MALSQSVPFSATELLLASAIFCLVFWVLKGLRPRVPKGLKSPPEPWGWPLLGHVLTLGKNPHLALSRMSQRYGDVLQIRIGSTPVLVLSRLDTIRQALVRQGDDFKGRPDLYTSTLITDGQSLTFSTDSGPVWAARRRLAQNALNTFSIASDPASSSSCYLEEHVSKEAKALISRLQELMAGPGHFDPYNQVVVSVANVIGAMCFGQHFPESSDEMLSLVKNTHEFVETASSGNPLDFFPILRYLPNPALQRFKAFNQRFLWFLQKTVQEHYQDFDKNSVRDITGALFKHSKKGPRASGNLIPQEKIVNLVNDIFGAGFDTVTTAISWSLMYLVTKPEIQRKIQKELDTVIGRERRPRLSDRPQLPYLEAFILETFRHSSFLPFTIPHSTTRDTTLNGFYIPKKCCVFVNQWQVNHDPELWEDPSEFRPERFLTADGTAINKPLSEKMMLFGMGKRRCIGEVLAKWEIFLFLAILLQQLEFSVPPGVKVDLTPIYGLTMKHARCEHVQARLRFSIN

[18] = Inhibition of PDE6
Mustela putorius furo [19] = experiment: Inhibition of […] in ferret assessed as inhibition of LPS-induced change in number of neutrophils in lung lavage at 12.5 mg/kg, po; format: functional

3',5'-cyclic-AMP phosphodiesterase 4B, sequence (Q07343 whole entry): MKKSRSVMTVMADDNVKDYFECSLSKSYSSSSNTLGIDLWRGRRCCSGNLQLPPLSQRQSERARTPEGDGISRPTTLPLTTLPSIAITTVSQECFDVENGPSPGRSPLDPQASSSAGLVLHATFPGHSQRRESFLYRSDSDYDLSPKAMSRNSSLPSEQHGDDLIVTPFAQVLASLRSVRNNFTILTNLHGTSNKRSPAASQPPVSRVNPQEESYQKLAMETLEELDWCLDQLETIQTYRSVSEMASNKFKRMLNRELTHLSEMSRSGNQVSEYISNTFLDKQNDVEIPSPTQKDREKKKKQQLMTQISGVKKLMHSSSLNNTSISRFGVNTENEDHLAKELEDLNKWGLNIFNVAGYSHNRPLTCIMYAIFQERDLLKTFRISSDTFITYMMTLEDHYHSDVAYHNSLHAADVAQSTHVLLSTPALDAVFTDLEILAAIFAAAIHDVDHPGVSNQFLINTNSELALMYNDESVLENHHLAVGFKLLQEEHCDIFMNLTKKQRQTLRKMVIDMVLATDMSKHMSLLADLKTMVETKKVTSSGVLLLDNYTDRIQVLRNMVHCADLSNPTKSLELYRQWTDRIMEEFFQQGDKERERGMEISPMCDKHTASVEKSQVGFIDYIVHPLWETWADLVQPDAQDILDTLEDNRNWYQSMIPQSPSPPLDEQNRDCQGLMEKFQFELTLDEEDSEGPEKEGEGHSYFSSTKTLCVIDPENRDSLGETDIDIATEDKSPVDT
3',5'-cyclic-AMP phosphodiesterase 4D, sequence (Q08499 whole entry): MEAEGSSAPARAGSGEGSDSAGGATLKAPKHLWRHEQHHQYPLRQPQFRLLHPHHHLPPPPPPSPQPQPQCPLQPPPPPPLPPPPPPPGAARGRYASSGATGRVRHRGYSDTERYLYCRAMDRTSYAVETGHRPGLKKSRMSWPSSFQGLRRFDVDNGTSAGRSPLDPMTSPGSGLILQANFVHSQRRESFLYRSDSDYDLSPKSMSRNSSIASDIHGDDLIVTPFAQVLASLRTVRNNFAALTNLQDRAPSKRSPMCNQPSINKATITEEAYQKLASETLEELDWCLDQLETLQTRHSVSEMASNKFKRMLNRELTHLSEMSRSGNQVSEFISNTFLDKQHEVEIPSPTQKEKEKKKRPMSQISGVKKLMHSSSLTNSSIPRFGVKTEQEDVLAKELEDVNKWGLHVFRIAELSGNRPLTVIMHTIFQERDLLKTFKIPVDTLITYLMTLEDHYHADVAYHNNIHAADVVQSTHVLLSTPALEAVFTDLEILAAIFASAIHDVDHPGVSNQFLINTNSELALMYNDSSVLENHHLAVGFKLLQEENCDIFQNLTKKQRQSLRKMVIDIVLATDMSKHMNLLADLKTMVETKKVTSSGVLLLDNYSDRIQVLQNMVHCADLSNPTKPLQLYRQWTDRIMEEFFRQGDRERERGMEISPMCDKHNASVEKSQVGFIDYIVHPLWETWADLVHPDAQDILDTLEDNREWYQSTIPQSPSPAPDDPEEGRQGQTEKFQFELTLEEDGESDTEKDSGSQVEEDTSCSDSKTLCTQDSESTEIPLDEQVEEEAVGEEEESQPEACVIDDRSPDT
Cytochrome P450 2C9, sequence (P11712 whole entry): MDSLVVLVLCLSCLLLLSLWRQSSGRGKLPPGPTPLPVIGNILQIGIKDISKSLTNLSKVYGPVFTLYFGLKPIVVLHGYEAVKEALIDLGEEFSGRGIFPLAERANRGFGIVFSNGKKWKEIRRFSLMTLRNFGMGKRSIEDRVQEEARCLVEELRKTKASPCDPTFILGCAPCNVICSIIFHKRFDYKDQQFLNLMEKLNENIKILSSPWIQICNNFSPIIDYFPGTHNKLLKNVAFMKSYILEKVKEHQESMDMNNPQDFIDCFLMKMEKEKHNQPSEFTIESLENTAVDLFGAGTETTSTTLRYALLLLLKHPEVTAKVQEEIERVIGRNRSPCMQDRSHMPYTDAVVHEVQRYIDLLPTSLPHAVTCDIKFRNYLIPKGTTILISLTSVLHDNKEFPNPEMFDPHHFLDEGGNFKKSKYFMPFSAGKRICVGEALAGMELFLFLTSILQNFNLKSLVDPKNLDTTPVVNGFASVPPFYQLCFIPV
Cytochrome P450 3A4, sequence (P08684 whole entry): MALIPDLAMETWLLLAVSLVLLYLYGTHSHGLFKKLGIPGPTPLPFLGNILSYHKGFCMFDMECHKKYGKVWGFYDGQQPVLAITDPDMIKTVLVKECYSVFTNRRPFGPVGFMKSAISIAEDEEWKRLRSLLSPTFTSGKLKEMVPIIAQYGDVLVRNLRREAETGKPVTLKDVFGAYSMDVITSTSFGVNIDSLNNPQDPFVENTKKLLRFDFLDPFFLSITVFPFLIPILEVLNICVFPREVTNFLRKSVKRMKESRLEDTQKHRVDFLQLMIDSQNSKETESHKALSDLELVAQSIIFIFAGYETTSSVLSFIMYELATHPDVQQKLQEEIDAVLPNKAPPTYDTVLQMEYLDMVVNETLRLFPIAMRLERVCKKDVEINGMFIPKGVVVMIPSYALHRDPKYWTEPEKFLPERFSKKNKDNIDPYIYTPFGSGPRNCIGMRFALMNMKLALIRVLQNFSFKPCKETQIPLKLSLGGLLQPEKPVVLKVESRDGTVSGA
Cytochrome P450 2D6, sequence (P10635 whole entry): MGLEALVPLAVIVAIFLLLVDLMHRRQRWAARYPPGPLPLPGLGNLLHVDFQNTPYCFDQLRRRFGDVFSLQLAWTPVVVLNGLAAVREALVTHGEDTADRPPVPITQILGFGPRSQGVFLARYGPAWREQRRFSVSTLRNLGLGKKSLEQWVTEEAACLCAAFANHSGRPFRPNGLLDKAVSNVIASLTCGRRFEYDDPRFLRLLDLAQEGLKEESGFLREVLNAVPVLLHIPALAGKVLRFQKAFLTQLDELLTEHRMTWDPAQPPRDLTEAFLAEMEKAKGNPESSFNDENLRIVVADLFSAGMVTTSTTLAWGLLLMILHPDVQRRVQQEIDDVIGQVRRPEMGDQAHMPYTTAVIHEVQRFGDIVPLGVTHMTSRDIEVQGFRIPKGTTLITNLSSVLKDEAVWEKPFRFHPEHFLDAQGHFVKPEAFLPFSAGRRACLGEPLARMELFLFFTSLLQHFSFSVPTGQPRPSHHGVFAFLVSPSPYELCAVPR

Cc1nc(-c2ccccc2)nc(Nc2ccc(C(=O)O)cc2)c1C=O
Ratio IC50 (Homo sapiens): 5.2 | pIC50 [1]: 5.82 | pIC50 [2]: 6.52

Cc1nc(-c2ccccc2)nc(Nc2ccc(C(=O)O)cc2)c1C(C)C
pIC50 [2]: < 6.00

C=CCc1c(C)nc(-c2ccccn2)nc1Nc1ccc(C(=O)O)cc1
Ratio IC50 (Homo sapiens): 4.1 | pIC50 [1]: 4.82 | pIC50 [2]: 5.43

C=CCc1c(C)nc(-c2ccc(C)s2)nc1Nc1ccc(C(=O)O)cc1
Ratio IC50 (Homo sapiens): 8.6 | pIC50 [1]: 5.89 | pIC50 [2]: 6.82

CCc1c(C)nc(-c2ccccc2)nc1Nc1ccc(C(=O)O)cc1
Ratio IC50 (Homo sapiens): 15 | pIC50 [1]: 5.68 | pIC50 [2]: 6.85

C=CCc1c(C)nc(-c2csc(C)n2)nc1Nc1ccc(C(=O)O)cc1
Ratio IC50 (Homo sapiens): 4.2 | pIC50 [1]: 4.92 | pIC50 [2]: 5.55

C=CCc1c(CC)nc(-c2ccccc2)nc1Nc1ccc(C(=O)O)cc1
Ratio IC50 (Homo sapiens): 2.4 | pIC50 [1]: 7.09 | pIC50 [2]: 7.47

COc1ccc([C@]2(C#N)CC[C@@H](C(=O)O)CC2)cc1OC1CCCC1 [CILOMILAST]
inhibition in vivo at 10 mg/kg (Mustela putorius furo [3]): 35% | ED50 (Mus musculus): 2.2 mg/kg | Activity (Mustela putorius furo [4]): Non-toxic | Activity (Mustela putorius furo [5]): Toxic | Activity (Mustela putorius furo [6]): Toxic

C=CCc1c(C)nc(-c2cnccn2)nc1Nc1ccc(C(=O)O)cc1
Ratio IC50 (Homo sapiens): 3.5 | pIC50 [1]: 5.52 | pIC50 [2]: 6.07

C=CCc1c(C)nc(-c2ccc(OC)cc2)nc1Nc1ccc(C(=O)O)cc1
Ratio IC50 (Homo sapiens): 8.9 | pIC50 [1]: 5.70 | pIC50 [2]: 6.66

Cc1nc(-c2ccccc2)nc(Nc2ccc(C(=O)O)cc2)c1Cc1ccccc1
pIC50 [2]: < 6.00

C=CCc1c(Nc2ccc(C(=O)O)cc2)nc(-c2ccccc2)nc1C(C)C
pIC50 [2]: < 6.00

C=CCc1c(C)nc(-c2cccc(C)c2)nc1Nc1ccc(CC(=O)O)cc1
Ratio IC50 (Homo sapiens): 8 | pIC50 [1]: 5.00 | pIC50 [2]: 5.92

C=CCc1c(C)nc(-c2ccccc2)nc1Nc1ccc(C(=O)O)cc1
Ratio IC50 (Homo sapiens): 9.7 | pIC50 [1]: 5.72 | pIC50 [2]: 6.72

C=CCc1c(C)nc(-c2ccsc2)nc1Nc1ccc(C(=O)O)cc1
Ratio IC50 (Homo sapiens): 15 | pIC50 [1]: 6.00 | pIC50 [2]: 7.17

CCc1c(C)nc(-c2ccc(Br)s2)nc1Nc1ccc(CC(=O)O)cc1
Ratio IC50 (Homo sapiens): 87 | pIC50 [1]: 5.80 | pIC50 [2]: 7.72

Cc1nc(-c2ccccc2)nc(Nc2ccc(C(=O)O)cc2)c1CN
pIC50 [2]: < 6.00

C=CCc1c(C)nc(-c2ccc(C)s2)nc1Nc1ccc(CC(=O)O)cc1
Ratio IC50 (Homo sapiens): 28 | pIC50 [1]: 5.06 | pIC50 [2]: 6.49

C=CCc1c(C)nc(-c2ccc(C)cc2)nc1Nc1ccc(CC(=O)O)cc1
Ratio IC50 (Homo sapiens): 12 | pIC50 [1]: 4.96 | pIC50 [2]: 6.03

C=CCc1c(C)nc(-c2cccs2)nc1Nc1ccc(C(=O)O)cc1
Ratio IC50 (Homo sapiens): 11 | pIC50 [1]: 5.89 | pIC50 [2]: 6.92

CCCc1c(C)nc(-c2ccccc2)nc1Nc1ccc(C(=O)O)cc1
Ratio IC50 (Homo sapiens): 5.6 | pIC50 [1]: 5.12 | pIC50 [2]: 5.89

Cc1nc(-c2ccccc2)nc(Nc2ccc(C(=O)O)cc2)c1C#N
Ratio IC50 (Homo sapiens): 12 | pIC50 [1]: 5.82 | pIC50 [2]: 6.92

C=CCc1c(C)nc(-c2cccc(C)c2)nc1Nc1ccc(C(=O)O)cc1
Ratio IC50 (Homo sapiens): 6.9 | pIC50 [1]: 5.82 | pIC50 [2]: 6.68

C=CCc1c(C)nc(-c2ccc(C)cc2)nc1Nc1ccc(C(=O)O)cc1
Ratio IC50 (Homo sapiens): 13 | pIC50 [1]: 5.55 | pIC50 [2]: 6.66

C=CCc1c(C)nc(-c2ccc(OC)s2)nc1Nc1ccc(CC(=O)O)cc1
Ratio IC50 (Homo sapiens): 29 | pIC50 [1]: 5.28 | pIC50 [2]: 6.72

CCCCc1c(C)nc(-c2ccccc2)nc1Nc1ccc(C(=O)O)cc1
pIC50 [2]: < 6.00

C=CCc1c(C)nc(-c2ccc(OC)s2)nc1Nc1ccc(C(=O)O)cc1
Ratio IC50 (Homo sapiens): 9.8 | pIC50 [1]: 6.12 | pIC50 [2]: 7.11

C=CCc1c(C)nc(-c2ccccc2)nc1Nc1ccc(CC(=O)O)cc1
pIC50 [1]: < 5.00 | pIC50 [2]: 5.74

Cc1nc(-c2ccccc2)nc(Nc2ccc(C(=O)O)cc2)c1CO
Ratio IC50 (Homo sapiens): 15 | pIC50 [1]: 5.10 | pIC50 [2]: 6.27

C=CCc1c(C)nc(-c2ccc(OC)cc2)nc1Nc1ccc(CC(=O)O)cc1
Ratio IC50 (Homo sapiens): 8 | pIC50 [1]: 5.32 | pIC50 [2]: 6.22

CCc1c(C)nc(-c2cc(Br)c(C)s2)nc1Nc1ccc(CC(=O)O)cc1
Ratio IC50 (Homo sapiens): 420 | pIC50 [1]: 5.54 | pIC50 [2]: 8.17

Cc1nc(-c2ccccc2)nc(Nc2ccc(C(=O)O)cc2)c1C
Ratio IC50 (Homo sapiens): 7.9 | pIC50 [1]: 5.47 | pIC50 [2]: 6.37

C=CCc1c(CCC)nc(-c2ccccc2)nc1Nc1ccc(C(=O)O)cc1
Ratio IC50 (Homo sapiens): 3.4 | pIC50 [1]: 5.62 | pIC50 [2]: 6.16

CCc1c(C)nc(-c2ccc(Cl)s2)nc1Nc1ccc(CC(=O)O)cc1
pIC50 (Cytochrome P450 3A4): < 5.00 | AUC(0-inf) [7]: 33500 ng·h/mL | Cmax [8]: 8700 ng/mL | Activity (Mustela putorius furo [9]): Non-toxic | ED50 (Mus musculus): 14 mg/kg | pIC50 (Cytochrome P450 2C9): < 5.00 | pIC50 (Cytochrome P450 2D6): < 5.00 | Ratio IC50 (Homo sapiens): 114 | Cmax [10]: 4500 ng/mL | AUC(0-inf) [11]: 52300 ng·h/mL | Activity (Mustela putorius furo [12]): Toxic | pIC50 [13]: < 5.70 | pIC50 [1]: 5.77 | bioavailability [14]: 85% | pIC50 [2]: 7.82 | pIC50 [15]: < 5.70 | pIC50 [16]: < 5.70 | inhibition in vivo at 25 mg/kg (Mustela putorius furo [17]): 46% | pIC50 (Cytochrome P450 1A2): < 5.00 | pIC50 [18]: < 5.70 | inhibition in vivo at 12.5 mg/kg (Mustela putorius furo [19]): 44%

CCc1c(C)nc(-c2ccc(SC)s2)nc1Nc1ccc(CC(=O)O)cc1
Ratio IC50 (Homo sapiens): 43 | pIC50 [1]: 5.82 | pIC50 [2]: 7.47

CCc1c(C)nc(-c2ccc(F)s2)nc1Nc1ccc(CC(=O)O)cc1F
pIC50 (Cytochrome P450 3A4): < 5.00 | AUC(0-inf) [7]: 341000 ng·h/mL | Cmax [8]: 10900 ng/mL | pIC50 (Cytochrome P450 2C9): < 5.00 | pIC50 (Cytochrome P450 2D6): < 5.00 | Ratio IC50 (Homo sapiens): 205 | Cmax [10]: 14800 ng/mL | AUC(0-inf) [11]: 21900 ng·h/mL | pIC50 [1]: 5.51 | bioavailability [14]: 73% | pIC50 [2]: 7.82 | pIC50 (Cytochrome P450 1A2): < 5.00
